According to US8247211B2, “Glycopeptide antibiotics” (American Cyanamid Company, priority 2001, dated 2012):

Assays:
Assay in all cases: In vitro antibacterial evaluation: minimum inhibitory concentration (MIC), broth dilution method
Type in all cases: cell-based
Details in all cases: 18 hours at 35° C.
Enterococcus sp. = system: Enterococcus sp.
Outline: (§1)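 Inoculum: 5×10^5 CFU/mL. Range: 64-0.06 μg/mL. Medium: Muller-Hinton II […]; NCCLS M7-A2 broth dilution. Endpoint: lowest concentration inhibiting growth. Strains include methicillin-, penicillin- and/or vancomycin-resistant clinical isolates.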

Escherichia coli = system: Escherichia coli
Outline: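 Broth dilution per NCCLS M7-A2 in Muller-Hinton II […], inoculum 5×10^5 CFU/mL, antibiotic tested over 64-0.06 μg/mL. MIC is taken as the lowest concentration that inhibits growth. Panel includes recent clinical isolates resistant to methicillin, penicillin and/or vancomycin.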

Staphylococcus sp. = system: Staphylococcus sp.
Outline: as §1

Streptococcus sp. = system: Streptococcus sp.
Outline: as §1

[1] = Enterococcus faecalis (ATCC 29212)
[2] = Enterococcus faecalis (GC 2242)
[3] = Enterococcus faecalis (GC 4552)
[4] = Enterococcus faecalis (GC 4553)
[5] = Enterococcus faecalis (GC 4554)
[6] = broth dilution, strain ATCC 29212
[7] = Coagulase Negative Staphylococcus (GC 4547)
[8] = Coagulase Negative Staphylococcus (GC 4548)
[9] = Coagulase Negative Staphylococcus (GC 4549)
[10] = Coagulase Negative Staphylococcus (GC 4551)
[11] = Coagulase Negative Staphylococcus (ID-3941)
[12] = Staphylococcus aureus (ATCC 29213)
[13] = Staphylococcus aureus (GC 1131)
[14] = Staphylococcus aureus (GC 4541)
[15] = Staphylococcus aureus (GC 4542)
[16] = Staphylococcus aureus (GC 4544)
[17] = Staphylococcus aureus (GC 4545)
[18] = Staphylococcus aureus-SMITH (GC 4543)
[19] = Staphylococcus haemolyticus (GC 4546)
[20] = broth dilution, strain ATCC 29213
[21] = Streptococcus agalactiae (GC 4564)
[22] = Streptococcus pneumoniae (GC 4565)
[23] = Streptococcus pyogenes (ID-3187)

Substance: β-O-[(Pentylamino)carbonyl]-cyclo[glycyl-β-methylphenylalanyl-O-(4-O-hexopyranosylhexopyranosyl)tyrosyl-3-(2-iminoimidazolidin-4-yl)seryl-3-(3-hexopyranosyl-2-iminoimidazolidin-4-yl)serylseryl] [Example 251a]
- MIC Enterococcus avium (GC 4558) (Enterococcus sp.; Enterococcus avium (GC 4558)): >64 µg/mL
- MIC Enterococcus faecalis (ATCC 29212) (Enterococcus sp.; [1]): >64 µg/mL
- MIC Enterococcus faecalis (GC 2242) (Enterococcus sp.; [2]): >64 µg/mL
- MIC Enterococcus faecalis (GC 4552) (Enterococcus sp.; [3]): >64 µg/mL
- MIC Enterococcus faecalis (GC 4553) (Enterococcus sp.; [4]): >64 µg/mL
- MIC Enterococcus faecalis (GC 4554) (Enterococcus sp.; [5]): >64 µg/mL
- MIC Enterococcus faecium (GC 2243) (Enterococcus sp.; Enterococcus faecium (GC 2243)): >64 µg/mL
- MIC Enterococcus faecium (GC 4556) (Enterococcus sp.; Enterococcus faecium (GC 4556)): >64 µg/mL
- MIC Enterococcus faecium (GC 4557) (Enterococcus sp.; Enterococcus faecium (GC 4557)): 16 µg/mL
- MIC Enterococcus faecalis (ATCC 29212) (Enterococcus sp.; [6]): >64 µg/mL
- MIC Enterococcus faecalis (GC 2242) (Enterococcus sp.; broth dilution, strain GC 2242): >64 µg/mL
- MIC Enterococcus faecium (GC 2243) (Enterococcus sp.; broth dilution, strain GC 2243): >64 µg/mL
- MIC Enterococcus faecalis (GC 4552) (Enterococcus sp.; broth dilution, strain GC 4552): >64 µg/mL
- MIC Enterococcus faecalis (GC 4553) (Enterococcus sp.; broth dilution, strain GC 4553): >64 µg/mL
- MIC Enterococcus faecalis (GC 4554) (Enterococcus sp.; broth dilution, strain GC 4554): >64 µg/mL
- MIC Enterococcus faecium (GC 4556) (Enterococcus sp.; broth dilution, strain GC 4556): >64 µg/mL
- MIC Enterococcus faecium (GC 4557) (Enterococcus sp.; broth dilution, strain GC 4557): 16 µg/mL
- MIC Enterococcus avium (GC 4558) (Enterococcus sp.; broth dilution, strain GC 4558): >64 µg/mL
- MIC Escherichia coli (ATCC 25922) (Escherichia coli): >64 µg/mL
- MIC Escherichia coli (GC 4559) (Escherichia coli): >64 µg/mL
- MIC Escherichia coli (GC 4560) (Escherichia coli): 8 µg/mL
- MIC Coagulase Negative Staphylococcus (GC 4547) (Staphylococcus sp.; [7]): 64 µg/mL
- MIC Coagulase Negative Staphylococcus (GC 4548) (Staphylococcus sp.; [8]): 64 µg/mL
- MIC Coagulase Negative Staphylococcus (GC 4549) (Staphylococcus sp.; [9]): 32 µg/mL
- MIC Coagulase Negative Staphylococcus (GC 4551) (Staphylococcus sp.; [10]): >64 µg/mL
- MIC Coagulase Negative Staphylococcus (ID-3941) (Staphylococcus sp.; [11]): 16 µg/mL
- MIC Staphylococcus aureus (ATCC 29213) (Staphylococcus sp.; [12]): >64 µg/mL
- MIC Staphylococcus aureus (GC 1131) (Staphylococcus sp.; [13]): >64 µg/mL
- MIC Staphylococcus aureus (GC 4541) (Staphylococcus sp.; [14]): 64 µg/mL
- MIC Staphylococcus aureus (GC 4542) (Staphylococcus sp.; [15]): 64 µg/mL
- MIC Staphylococcus aureus (GC 4544) (Staphylococcus sp.; [16]): >64 µg/mL
- MIC Staphylococcus aureus (GC 4545) (Staphylococcus sp.; [17]): 64 µg/mL
- MIC Staphylococcus aureus-SMITH (GC 4543) (Staphylococcus sp.; [18]): 64 µg/mL
- MIC Staphylococcus haemolyticus (GC 4546) (Staphylococcus sp.; [19]): 64 µg/mL
- MIC Staphylococcus aureus (ATCC 29213) (Staphylococcus sp.; [20]): >64 µg/mL
- MIC Staphylococcus aureus (GC 1131) (Staphylococcus sp.; broth dilution, strain GC 1131): >64 µg/mL
- MIC Staphylococcus aureus (GC 4541) (Staphylococcus sp.; broth dilution, strain GC 4541): 64 µg/mL
- MIC Staphylococcus aureus (GC 4542) (Staphylococcus sp.; broth dilution, strain GC 4542): 64 µg/mL
- MIC Staphylococcus aureus-SMITH (GC 4543) (Staphylococcus sp.; broth dilution, strain GC 4543): 64 µg/mL
- MIC Staphylococcus aureus (GC 4544) (Staphylococcus sp.; broth dilution, strain GC 4544): >64 µg/mL
- MIC Staphylococcus aureus (GC 4545) (Staphylococcus sp.; broth dilution, strain GC 4545): 64 µg/mL
- MIC Staphylococcus haemolyticus (GC 4546) (Staphylococcus sp.; broth dilution, strain GC 4546): 64 µg/mL
- MIC Coagulase Negative Staphylococcus (GC 4547) (Staphylococcus sp.; broth dilution, strain GC 4547): 64 µg/mL
- MIC Coagulase Negative Staphylococcus (GC 4548) (Staphylococcus sp.; broth dilution, strain GC 4548): 64 µg/mL
- MIC Coagulase Negative Staphylococcus (GC 4549) (Staphylococcus sp.; broth dilution, strain GC 4549): 32 µg/mL
- MIC Coagulase Negative Staphylococcus (GC 4551) (Staphylococcus sp.; broth dilution, strain GC 4551): >64 µg/mL
- MIC Coagulase Negative Staphylococcus (ID-3941) (Staphylococcus sp.; broth dilution, strain ID-3941): 16 µg/mL
- MIC Streptococcus agalactiae (GC 4564) (Streptococcus sp.; [21]): 32 µg/mL
- MIC Streptococcus pneumoniae (GC 4565) (Streptococcus sp.; [22]): 8 µg/mL
- MIC Streptococcus pyogenes (ID-3187) (Streptococcus sp.; [23]): 16 µg/mL
- MIC Streptococcus agalactiae (GC 4564) (Streptococcus sp.; broth dilution, strain GC 4564): 32 µg/mL
- MIC Streptococcus pneumoniae (GC 4565) (Streptococcus sp.; broth dilution, strain GC 4565): 8 µg/mL
- MIC Streptococcus pyogenes (ID-3187) (Streptococcus sp.; broth dilution, strain ID-3187): 16 µg/mL

Substance: γ-O-[(Dodecylamino)carbonyl]-cyclo[glycyl-β-methylphenylalanyl-O-(4-O-hexopyranosylhexopyranosyl]tyrosyl-3-(2-iminoimidazolidin-4-yl)seryl-3-(3-hexopyranosyl-2-iminoimidazolidin-4-yl)serylseryl] [Example 254b]
- MIC Enterococcus avium (GC 4558) (Enterococcus sp.; Enterococcus avium (GC 4558)): 4 µg/mL
- MIC Enterococcus faecalis (ATCC 29212) (Enterococcus sp.; [1]): 8 µg/mL
- MIC Enterococcus faecalis (GC 2242) (Enterococcus sp.; [2]): 8 µg/mL
- MIC Enterococcus faecalis (GC 4552) (Enterococcus sp.; [3]): 8 µg/mL
- MIC Enterococcus faecalis (GC 4553) (Enterococcus sp.; [4]): 4 µg/mL
- MIC Enterococcus faecalis (GC 4554) (Enterococcus sp.; [5]): 4 µg/mL
- MIC Enterococcus faecium (GC 2243) (Enterococcus sp.; Enterococcus faecium (GC 2243)): 4 µg/mL
- MIC Enterococcus faecium (GC 4556) (Enterococcus sp.; Enterococcus faecium (GC 4556)): 8 µg/mL
- MIC Enterococcus faecium (GC 4557) (Enterococcus sp.; Enterococcus faecium (GC 4557)): 8 µg/mL
- MIC Enterococcus faecalis (ATCC 29212) (Enterococcus sp.; [6]): 8 µg/mL
- MIC Enterococcus faecalis (GC 2242) (Enterococcus sp.; broth dilution, strain GC 2242): 8 µg/mL
- MIC Enterococcus faecium (GC 2243) (Enterococcus sp.; broth dilution, strain GC 2243): 4 µg/mL
- MIC Enterococcus faecalis (GC 4552) (Enterococcus sp.; broth dilution, strain GC 4552): 8 µg/mL
- MIC Enterococcus faecalis (GC 4553) (Enterococcus sp.; broth dilution, strain GC 4553): 4 µg/mL
- MIC Enterococcus faecalis (GC 4554) (Enterococcus sp.; broth dilution, strain GC 4554): 4 µg/mL
- MIC Enterococcus faecium (GC 4556) (Enterococcus sp.; broth dilution, strain GC 4556): 8 µg/mL
- MIC Enterococcus faecium (GC 4557) (Enterococcus sp.; broth dilution, strain GC 4557): 8 µg/mL
- MIC Enterococcus avium (GC 4558) (Enterococcus sp.; broth dilution, strain GC 4558): 4 µg/mL
- MIC Escherichia coli (ATCC 25922) (Escherichia coli): 64 µg/mL
- MIC Escherichia coli (GC 4559) (Escherichia coli): 64 µg/mL
- MIC Escherichia coli (GC 4560) (Escherichia coli): 16 µg/mL
- MIC Coagulase Negative Staphylococcus (GC 4547) (Staphylococcus sp.; [7]): 8 µg/mL
- MIC Coagulase Negative Staphylococcus (GC 4548) (Staphylococcus sp.; [8]): 2 µg/mL
- MIC Coagulase Negative Staphylococcus (GC 4549) (Staphylococcus sp.; [9]): 4 µg/mL
- MIC Coagulase Negative Staphylococcus (GC 4551) (Staphylococcus sp.; [10]): 4 µg/mL
- MIC Coagulase Negative Staphylococcus (ID-3941) (Staphylococcus sp.; [11]): 2 µg/mL
- MIC Staphylococcus aureus (ATCC 29213) (Staphylococcus sp.; [12]): 8 µg/mL
- MIC Staphylococcus aureus (GC 1131) (Staphylococcus sp.; [13]): 4 µg/mL
- MIC Staphylococcus aureus (GC 4541) (Staphylococcus sp.; [14]): 4 µg/mL
- MIC Staphylococcus aureus (GC 4542) (Staphylococcus sp.; [15]): 8 µg/mL
- MIC Staphylococcus aureus (GC 4544) (Staphylococcus sp.; [16]): 8 µg/mL
- MIC Staphylococcus aureus (GC 4545) (Staphylococcus sp.; [17]): 8 µg/mL
- MIC Staphylococcus aureus-SMITH (GC 4543) (Staphylococcus sp.; [18]): 4 µg/mL
- MIC Staphylococcus haemolyticus (GC 4546) (Staphylococcus sp.; [19]): 8 µg/mL
- MIC Staphylococcus aureus (ATCC 29213) (Staphylococcus sp.; [20]): 8 µg/mL
- MIC Staphylococcus aureus (GC 1131) (Staphylococcus sp.; broth dilution, strain GC 1131): 4 µg/mL
- MIC Staphylococcus aureus (GC 4541) (Staphylococcus sp.; broth dilution, strain GC 4541): 4 µg/mL
- MIC Staphylococcus aureus (GC 4542) (Staphylococcus sp.; broth dilution, strain GC 4542): 8 µg/mL
- MIC Staphylococcus aureus-SMITH (GC 4543) (Staphylococcus sp.; broth dilution, strain GC 4543): 4 µg/mL
- MIC Staphylococcus aureus (GC 4544) (Staphylococcus sp.; broth dilution, strain GC 4544): 8 µg/mL
- MIC Staphylococcus aureus (GC 4545) (Staphylococcus sp.; broth dilution, strain GC 4545): 8 µg/mL
- MIC Staphylococcus haemolyticus (GC 4546) (Staphylococcus sp.; broth dilution, strain GC 4546): 8 µg/mL
- MIC Coagulase Negative Staphylococcus (GC 4547) (Staphylococcus sp.; broth dilution, strain GC 4547): 8 µg/mL
- MIC Coagulase Negative Staphylococcus (GC 4548) (Staphylococcus sp.; broth dilution, strain GC 4548): 2 µg/mL
- MIC Coagulase Negative Staphylococcus (GC 4549) (Staphylococcus sp.; broth dilution, strain GC 4549): 4 µg/mL
- MIC Coagulase Negative Staphylococcus (GC 4551) (Staphylococcus sp.; broth dilution, strain GC 4551): 4 µg/mL
- MIC Coagulase Negative Staphylococcus (ID-3941) (Staphylococcus sp.; broth dilution, strain ID-3941): 2 µg/mL
- MIC Streptococcus agalactiae (GC 4564) (Streptococcus sp.; [21]): <0.5 µg/mL
- MIC Streptococcus pneumoniae (GC 4565) (Streptococcus sp.; [22]): <0.5 µg/mL
- MIC Streptococcus pyogenes (ID-3187) (Streptococcus sp.; [23]): <0.5 µg/mL
- MIC Streptococcus agalactiae (GC 4564) (Streptococcus sp.; broth dilution, strain GC 4564): <0.5 µg/mL
- MIC Streptococcus pneumoniae (GC 4565) (Streptococcus sp.; broth dilution, strain GC 4565): <0.5 µg/mL
- MIC Streptococcus pyogenes (ID-3187) (Streptococcus sp.; broth dilution, strain ID-3187): <0.5 µg/mL
